What all share (format): in vivo
Experiment [1] concerns Echinochloa crus-galli var. formosensis at the three-leaf stage. As to the kind of experiment: Comparative Example: herbicidal effect test by application during growth period of paddy rice (three-leaf stage, Table 7). The note with it: active ingredient 7.5 g per 10 ares, emulsifiable concentrate applied by dropper to flooded pots, 21 days after chemical application, triplicate; for inhibition at 75 g/ha: 504 h, read-out: Weed inhibition rate (%). The procedure: As an example, the herbicidal effect on Echinochloa crus-galli var. formosensis at the three-leaf stage was confirmed by the following method, and the results are specifically shown in Table 7 as a comparative example.
Wagner pots with an area of […] were filled with paddy soil, followed by addition of water and incorporation of chemical fertilizer (N:P:K = 16:16:16), after which puddling was performed. After that, 30 seeds of Echinochloa crus-galli var. formosensis were sown at a depth of 0 cm to 1 cm. Immediately after sowing, the pots were flooded and a water depth of approximately 3 cm was maintained. Subsequent management was conducted in a glass greenhouse. When Echinochloa crus-galli var. formosensis reached the three-leaf stage, an emulsifiable concentrate prepared according to Formulation Example 5 using the compound shown below was diluted with water, and a specified amount of the diluted solution was applied by dropper. The amount of the active ingredient to be applied was equivalent to 7.5 g per 10 ares. The test was conducted in triplicate for each chemical concentration group, and the weed inhibition rate (%) was determined 21 days after chemical application using the following formula (Math. 1).

The subject of experiment [2] is Echinochloa crus-galli var. formosensis. As to the kind of experiment: Test Example 1: herbicidal effect test by soil application in paddy rice. To be noted: Echinochloa crus-galli, soil, 336 h; 120 g active ingredient per 10 ares; applied immediately after sowing, flooded pots; 14 days after application; read-out: weed inhibition rate. Put shortly: (§1)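 Paddy soil in Wagner pots (1/10,000 acre) was fertilized (N:P:K 16:16:16) and puddled, then weed seeds were sown 0–1 cm deep, 30 each. Pots were flooded to ~3 cm and kept in a glass greenhouse. Emulsifiable concentrate diluted in water was dropped on immediately after sowing at 120 g a.i. per 10 ares.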

Experiment [3] deals with Scirpus juncoides. The description is as above. The note with it: Schoenoplectiella juncoides, soil, 336 h; 120 g active ingredient per 10 ares; applied immediately after sowing, flooded pots; 14 days after application; read-out: weed inhibition rate. Put shortly: as §1
For experiment [4], the system named is Echinochloa crus-galli. Briefly: Test Example 4: herbicidal effect test by stem and leaf treatment in upland field. To be noted: Echinochloa crus-galli; 120 g per 10 ares; sprayed seven days after sowing, upland soil; 14 days after application; read-out: weed inhibition rate.
The subject of experiment [5] is Digitaria ciliaris. The experiment is described as above. The note with it: Digitaria ciliaris; 120 g per 10 ares; sprayed seven days after sowing, upland soil; 14 days after application; read-out: weed inhibition rate.
The subject of experiment [6] is Digitaria ciliaris. Briefly: Test Example 3: herbicidal effect test by soil application in upland field. The note with it: Digitaria ciliaris, 120 g per 10 ares, sprayed one day after sowing, 14 days after application, read-out: weed inhibition rate. Put shortly: (§2)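 Pre-emergence test: seeds mixed into top 1 cm of alluvial loam upland soil in pots; emulsifiable concentrate diluted in water sprayed on soil one day after sowing at 100 L/10 a, 120 g a.i./10 a. Weed inhibition rate (%) scored at 14 days, in duplicate.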

Experiment [7] deals with Echinochloa crus-galli. The experiment is described as above. To be noted: Echinochloa crus-galli, 120 g per 10 ares, sprayed one day after sowing, 14 days after application, read-out: weed inhibition rate. The method in brief:
as §2

In experiment [8] the test system is Echinochloa crus-galli var. formosensis. Briefly: Test Example 5: herbicidal effect test by soil application in paddy rice (low dose). To be noted: Echinochloa crus-galli, soil, 336 h; 7.5 g per 10 ares; applied immediately after sowing, flooded pots; 14 days after application; read-out: weed inhibition rate. Put shortly: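 Paddy-soil pots, weeds sown 0–1 cm deep and flooded to about 3 cm in a greenhouse. Emulsifiable concentrate diluted in water and dropped in right after sowing at 7.5 g active ingredient per 10 ares. Duplicates; effect scored 14 days after application.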

Experiment [9] has the same test system. As to the kind of experiment: Test Example 2: herbicidal effect test by application during growth period of paddy rice. The note with it: Echinochloa crus-galli; 120 g per 10 ares; applied seven days after sowing, flooded pots; 14 days after application; read-out: weed inhibition rate. Put shortly:
(§3)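 Paddy soil in flooded pots (water depth about 3 cm) was sown with weed seeds and kept in a glass greenhouse. Seven days after sowing, a diluted emulsifiable concentrate was applied by dropper at 120 g active ingredient per 10 ares. Weed inhibition was evaluated 14 days after application, in duplicate.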

Experiment [10] has as its system Lindernia pyxidaria. The experiment is described as above. To be noted: 120 g per 10 ares, applied seven days after sowing, flooded pots, 14 days after application, read-out: weed inhibition rate. Put shortly:
as §3

Experiment [11] deals with Scirpus juncoides. The experiment is described as above. To be noted: Schoenoplectiella juncoides; 120 g per 10 ares; applied seven days after sowing, flooded pots; 14 days after application; read-out: weed inhibition rate. The method in brief: as §3
Experiment [12] relates to Echinochloa crus-galli var. formosensis. As to the kind of experiment: Test Example 6: herbicidal effect test by application during growth period of paddy rice (low dose). To be noted: Echinochloa crus-galli; 7.5 g per 10 ares; applied seven days after sowing, flooded pots; 14 days after application; read-out: weed inhibition rate. The method in brief:
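Low-dose water application, 7.5 g a.i. per 10 ares, given by dropper into flooded pots (about 3 cm depth) 7 days after sowing of 30 weed seeds each at 0–1 cm. Evaluation of inhibition (%) took place 14 days later, duplicate per rate.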

The test system of experiment [13] is Lindernia pyxidaria. Briefly: Test Example 1: herbicidal effect test by soil application in paddy rice. The note with it: 336 h, 120 g active ingredient per 10 ares, applied immediately after sowing, flooded pots, 14 days after application, read-out: weed inhibition rate. The procedure:
(§4) Wagner pots with an area of […] were filled with paddy soil, followed by addition of water and incorporation of chemical fertilizer (N:P:K = 16:16:16), after which puddling was performed. After that, seeds of Echinochloa crus-galli var. formosensis, broad-leaved weeds (Lindernia pyxidaria and Monochoria vaginalis), and Scirpus juncoides were sown at a depth of 0 cm to 1 cm, 30 seeds each. Immediately after sowing, the pots were flooded and a water depth of approximately 3 cm was maintained. Subsequent management was conducted in a glass greenhouse. Immediately thereafter, an emulsifiable concentrate prepared according to Formulation Example 5 using the compound shown below was diluted with water, and a specified amount of the diluted solution was applied by dropper. The amount of the active ingredient to be applied was equivalent to 120 g per 10 ares.
(§5) The present test was conducted in duplicate for each chemical concentration group, and the weed inhibition rate (%) was determined 14 days after chemical application using the following formula (Math. 1). [formula]

The test system of experiment [14] is Monochoria vaginalis. Described as above. To be noted: Pontederia vaginalis, soil, 336 h; 120 g active ingredient per 10 ares; applied immediately after sowing, flooded pots; 14 days after application; read-out: weed inhibition rate. The procedure:
as §4, §5

For experiment [15], the system named is Monochoria vaginalis. As to the kind of experiment: Test Example 2: herbicidal effect test by application during growth period of paddy rice. To be noted: Pontederia vaginalis; 120 g per 10 ares; applied seven days after sowing, flooded pots; 14 days after application; read-out: weed inhibition rate. The method in brief:
as §3

Experiment [16] has as its system Chenopodium album. Briefly: Test Example 4: herbicidal effect test by stem and leaf treatment in upland field. To be noted: 120 g per 10 ares, sprayed seven days after sowing, upland soil, 14 days after application, read-out: weed inhibition rate.

Usually inhibition stands for how much of the control response was suppressed.

`Cc1ccccc1COC1CC2(C(C)C)CCC1(C)O2` (stereo not drawn): the inhibition at 75 g/ha in experiment [1] came to 73%.

As to `Cc1cccc(CO[C@@H]2C[C@]3(C(C)C)O[C@@]2(C)CC3=O)c1` [2-352, (1R,4S,5R)-1-isopropyl-4-methyl-5-((3-methylbenzyl)oxy)-7-oxabicyclo[2.2.1]heptan-2-one], the pest or weed control at 1200 g/ha in experiment [2] and in [3] was not below 80% throughout. In addition, the inhibition at 1200 g/ha in [4], in [5], in experiment [6], in [7], in [9] and in experiment [10] was not below 80% throughout. In addition, the inhibition at 1200 g/ha in experiment [11] is not below 80%. Further, the inhibition at 75 g/ha in [8] and in [12] was not below 80% in each case.

In the case of `C=C1C(OCc2ccccc2C)C2(C)CCC1(C(C)C)O2` (stereo not drawn), the “Weed inhibition rate (%)” value in experiment [1] came to 20%.

Take `CC(C)[C@]12C[C@@H](OCc3ccccc3F)[C@](C)(CC1c1ccccc1F)O2` (stereo partly drawn) [1-922, (1S,2R,4R)-2-((2-fluorobenzyl)oxy)-5-(2-fluorophenyl)-4-isopropyl-1-methyl-7-oxabicyclo[2.2.1]heptane]: the pest or weed control at 1200 g/ha in experiment [2], in [3], in [13] and in [14] was not below 80% each time. The inhibition at 1200 g/ha in experiment [4], in [5], in experiment [7], in experiment [9] and in experiment [15] was not below 80% in each case. Further, in [8], the inhibition at 75 g/ha is not below 80%.

On to `CC(C)[C@]12C[C@@H](OCc3ccccc3F)[C@](C)(CC1c1ccc(F)cc1)O2` (stereo partly drawn) [1-924, (1S,2R,4R)-2-((2-fluorobenzyl)oxy)-5-(4-fluorophenyl)-4-isopropyl-1-methyl-7-oxabicyclo[2.2.1]heptane], for which the pest or weed control at 1200 g/ha in experiment [2], in experiment [3], in experiment [13] and in [14] was not below 80% in each case. In addition, the inhibition at 1200 g/ha in experiment [4], in [5], in experiment [16], in experiment [7] and in experiment [9] was not below 80% throughout.

Turning to `CC(C)[C@]12C[C@@H](OCc3ccccc3F)[C@](C)(C[C@@H]1C)O2` [1-93, (1S,2R,4R,5S)-2-[(2-fluorophenyl)methoxy]-1,5-dimethyl-4-isopropyl-7-oxabicyclo[2.2.1]heptane], the pest or weed control at 1200 g/ha in experiment [2] was not below 80%. The inhibition at 1200 g/ha in [4], in experiment [5], in [6], in experiment [7] and in experiment [9] was not below 80% each time. The inhibition at 75 g/ha in experiment [1] was determined as 100%.
